From US10336730B2, “Substituted glycine derived FXIA inhibitors” (BRISTOL-MYERS SQUIBB COMPANY, priority 2015, dated 2019)

Target: T1, purified human Factor XIa (Homo sapiens, UniProt P03951)
T1 construct: purchased Haematologic Technologies
Experiment: Factor XIa enzyme inhibition assay (chromogenic substrate S-2366), Ki
Type: biochemical
Settings: substrate S-2366, pH 7.4
Experimental: The effectiveness of compounds of the present invention as inhibitors of the coagulation Factors XIa, VIIa, IXa, Xa, XIIa, plasma kallikrein, thrombin, chemytrypsin or trypsin can be determined using a relevant purified serine protease, respectively, and an appropriate synthetic substrate. The rate of hydrolysis of the chromogenic or fluorogenic substrate by the relevant serine protease was measured both in the absence and presence of compounds of the present invention. […] A decrease in the rate of absorbance or fluorescence change in the presence of inhibitor is indicative of enzyme inhibition. Such methods are known to one skilled in the art. The results of this assay are expressed as the inhibitory constant, Ki.
Factor XIa determinations were made in 50 mM HEPES buffer at pH 7.4 containing 145 mM NaCl, 5 mM KCl, and 0.1% PEG 8000 (polyethylene glycol; JT Baker or Fisher Scientific). Determinations were made using purified human Factor XIa at a final concentration of […] (Haematologic Technologies) and the synthetic substrate S-2366 (pyroGlu-Pro-Arg-pNA; CHROMOGENIX® or AnaSpec) at a concentration of 0.0002-0.001 M.
Values of Ki were determined by allowing the protease to react with the substrate in the presence of the inhibitor. Reactions were allowed to go for periods of 20-180 minutes (depending on the protease) and the velocities (rate of absorbance or fluorescence change versus time) were measured. The following relationships were used to calculate Ki values: (Vmax*S)/(Km+S) (vo−vs)/vs=I/(Ki*(1+S/Km)) for a competitive inhibitor with one binding site; or vs/vo=A+(B−A)/(1+(IC50/(I)^n)); and Ki=IC50/(1+S/Km) for a competitive inhibitor where: […]

T1 sequence (P03951 388-625 limits assumed): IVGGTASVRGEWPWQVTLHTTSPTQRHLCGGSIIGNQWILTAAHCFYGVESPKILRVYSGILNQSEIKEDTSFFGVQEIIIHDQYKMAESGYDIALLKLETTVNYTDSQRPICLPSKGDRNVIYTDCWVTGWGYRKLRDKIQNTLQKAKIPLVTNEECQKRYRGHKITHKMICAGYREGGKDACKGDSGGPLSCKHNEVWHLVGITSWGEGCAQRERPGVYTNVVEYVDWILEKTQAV
T1 sequence (P03951 19-387 partner limits assumed): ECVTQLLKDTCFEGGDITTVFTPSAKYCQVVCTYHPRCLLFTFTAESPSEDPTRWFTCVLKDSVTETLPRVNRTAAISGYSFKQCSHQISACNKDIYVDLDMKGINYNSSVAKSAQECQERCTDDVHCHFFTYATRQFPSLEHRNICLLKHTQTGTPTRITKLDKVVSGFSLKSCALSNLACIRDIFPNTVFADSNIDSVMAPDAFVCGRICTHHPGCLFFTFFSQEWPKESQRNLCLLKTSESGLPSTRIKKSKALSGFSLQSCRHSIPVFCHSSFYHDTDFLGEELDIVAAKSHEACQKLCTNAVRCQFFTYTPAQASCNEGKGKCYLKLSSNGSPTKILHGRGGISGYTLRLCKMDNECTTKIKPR

Compound	Ki [nM]
O=C([C@H](Cc1ccccc1)n1cnc(-c2cc(Cl)ccc2-n2cc(Cl)nn2)cc1=O)N1CCC(CO)CC1 [Example 56, (S)-6-(5-chloro-2-(4-chloro-1H-1,2,3-triazol-1-yl)phenyl)-3-(1-(4-(hydroxymethyl)piperidin-1-yl)-1-oxo-3-phenylpropan-2-yl)pyrimidin-4(3H)-one]	7370
O=C(Nc1ccc(OC2CCOCC2)cc1)[C@H](Cc1ccccc1)n1cnc(-c2cc(Cl)ccc2-n2cc(Cl)nn2)cc1=O [Example 41, (S)-2-(4-(5-chloro-2-(4-chloro-1H-1,2,3-triazol-1-yl)phenyl)-6-oxopyrimidin-1(6H)-yl)-3-phenyl-N-(4-((tetrahydro-2H-pyran-4-yl)oxy)phenyl)propanamide]	117
O=C(Nc1ccnc2[nH]ncc12)[C@H](Cc1ccccc1)n1cnc(-c2cc(Cl)ccc2-n2cc(Cl)nn2)cc1=O [Example 126, (S)-2-(4-(5-chloro-2-(4-chloro-1H-1,2,3-triazol-1-yl)phenyl)-6-oxopyrimidin-1(6H)-yl)-3-phenyl-N-(1H-pyrazolo[3,4-b]pyridin-4-yl)propanamide]	213
Cc1nc2ccc(NC(=O)[C@H](Cc3ccccc3)n3cnc(-c4cc(Cl)ccc4-n4cc(Cl)nn4)cc3=O)cc2o1 [Example 33, (S)-2-(4-(5-chloro-2-(4-chloro-1H-1,2,3-triazol-1-yl)phenyl)-6-oxopyrimidin-1(6H)-yl)-N-(2-methylbenzo[d]oxazol-6-yl)-3-phenylpropanamide]	37.8
CC(=O)N1CCN(C(=O)[C@H](Cc2ccccc2)n2cnc(-c3cc(Cl)ccc3-n3cc(Cl)nn3)cc2=O)CC1 [Example 60, (S)-3-(1-(4-acetylpiperazin-1-yl)-1-oxo-3-phenylpropan-2-yl)-6-(5-chloro-2-(4-chloro-1H-1,2,3-triazol-1-yl)phenyl)pyrimidin-4(3H)-one]	7370
Cc1nccn1-c1ccc(NC(=O)[C@H](Cc2ccccc2)n2cnc(-c3cc(Cl)ccc3-n3cc(Cl)nn3)cc2=O)cc1 [Example 93, (S)-2-(4-(5-chloro-2-(4-chloro-1H-1,2,3-triazol-1-yl)phenyl)-6-oxopyrimidin-1(6H)-yl)-N-(4-(2-methyl-1H-imidazol-1-yl)phenyl)-3-phenylpropanamide]	111
O=C(Nc1ccc(-c2ccncc2)cc1)[C@H](Cc1ccccc1)n1cnc(-c2cc(Cl)ccc2-n2cc(Cl)nn2)cc1=O [Example 25, (S)-2-(4-(5-chloro-2-(4-chloro-1H-1,2,3-triazol-1-yl)phenyl)-6-oxopyrimidin-1(6H)-yl)-3-phenyl-N-(4-(pyridin-4-yl)phenyl)propanamide]	49.6
O=C(Nc1cnns1)[C@H](Cc1ccccc1)n1cnc(-c2cc(Cl)ccc2-n2cc(Cl)nn2)cc1=O [Example 36, (S)-2-(4-(5-chloro-2-(4-chloro-1H-1,2,3-triazol-1-yl)phenyl)-6-oxopyrimidin-1(6H)-yl)-3-phenyl-N-(1,2,3-thiadiazol-5-yl)propanamide]	1340
O=C(Nc1ccc(Cc2ccncc2)cc1)[C@H](Cc1ccccc1)n1cnc(-c2cc(Cl)ccc2-n2cc(Cl)nn2)cc1=O [Example 24, (S)-2-(4-(5-chloro-2-(4-chloro-1H-1,2,3-triazol-1-yl)phenyl)-6-oxopyrimidin-1(6H)-yl)-3-phenyl-N-(4-(pyridin-4-ylmethyl)phenyl)propanamide]	112
NC(=O)CCNC(=O)[C@H](Cc1ccccc1)n1cnc(-c2cc(Cl)ccc2-n2cc(Cl)nn2)cc1=O [Example 59, (S)-N-(3-amino-3-oxopropyl)-2-(4-(5-chloro-2-(4-chloro-1H-1,2,3-triazol-1-yl)phenyl)-6-oxopyrimidin-1(6H)-yl)-3-phenylpropanamide]	6170
Cn1ccnc1N1CCN(C(=O)[C@H](Cc2ccccc2)n2cnc(-c3cc(Cl)ccc3-n3cc(Cl)nn3)cc2=O)CC1 [Example 83, (S)-6-(5-chloro-2-(4-chloro-1H-1,2,3-triazol-1-yl)phenyl)-3-(1-(4-(1-methyl-1H-imidazol-2-yl)piperazin-1-yl)-1-oxo-3-phenylpropan-2-yl)pyrimidin-4(3H)-one]	3110
CCCNC(=O)[C@H](Cc1ccccc1)n1cnc(-c2cc(Cl)ccc2-n2cc(Cl)nn2)cc1=O [Example 89, (S)-2-(4-(5-chloro-2-(4-chloro-1H-1,2,3-triazol-1-yl)phenyl)-6-oxopyrimidin-1(6H)-yl)-3-phenyl-N-propylpropanamide]	1940
Cc1ccc(NC(=O)[C@H](Cc2ccccc2)n2cnc(-c3cc(Cl)ccc3-n3cc(Cl)nn3)cc2=O)nn1 [Example 106, (S)-2-(4-(5-chloro-2-(4-chloro-1H-1,2,3-triazol-1-yl)phenyl)-6-oxopyrimidin-1(6H)-yl)-N-(6-methylpyridazin-3-yl)-3-phenylpropanamide]	325
O=C(Nc1ccc2ncncc2c1)[C@H](Cc1ccccc1)n1cnc(-c2cc(Cl)ccc2-n2cc(Cl)nn2)cc1=O [Example 31, (S)-2-(4-(5-chloro-2-(4-chloro-1H-1,2.3-triazol-1-yl)phenyl)-6-oxopyrimidin-1(6H)-yl)-3-phenyl-N-(quinazolin-6-yl)propanamide]	10.3
N=C(N)c1ccc(NC(=O)[C@H](Cc2ccccc2)n2cnc(-c3cc(Cl)ccc3-n3cc(Cl)nn3)cc2=O)cc1 [Example 112, (S)-N-(4-carbamimidoylphenyl)-2-(4-(5-chloro-2-(4-chloro-1H-1,2,3-triazol-1-yl)phenyl)-6-oxopyrimidin-1(6H)-yl)-3-phenylpropanamide]	277
O=C([C@H](Cc1ccccc1)n1cnc(-c2cc(Cl)ccc2-n2cc(Cl)nn2)cc1=O)N1CCC1 [Example 88, (S)-3-(1-(azetidin-1-yl)-1-oxo-3-phenylpropan-2-yl)-6-(5-chloro-2-(4-chloro-1H-1,2,3-triazol-1-yl)phenyl)pyrimidin-4(3H)-one]	5610
CN1CCC(CNC(=O)[C@H](Cc2ccccc2)n2cnc(-c3cc(Cl)ccc3-n3cc(Cl)nn3)cc2=O)C1 (mixture of isomers) [Example 48, (2S)-2-(4-(5-chloro-2-(4-chloro-1H-1,2,3-triazol-1-yl)phenyl)-6-oxopyrimidin-1(6H)-yl)-N-((1-methylpyrrolidin-3-yl)methyl)-3-phenylpropanamide]	7370
NC(=O)CNC(=O)[C@H](Cc1ccccc1)n1cnc(-c2cc(Cl)ccc2-n2cc(Cl)nn2)cc1=O [Example 62, (S)-N-(2-amino-2-oxoethyl)-2-(4-(5-chloro-2-(4-chloro-1H-1,2,3-triazol-1-yl)phenyl)-6-oxopyrimidin-1(6H)-yl)-3-phenylpropanamide]	8980
O=C(Nc1ccc(N2CCOCC2=O)cc1)[C@H](Cc1ccccc1)n1cnc(-c2cc(Cl)ccc2-n2cc(Cl)nn2)cc1=O [Example 37, (S)-2-(4-(5-chloro-2-(4-chloro-1H-1,2,3-triazol-1-yl)phenyl)-6-oxopyrimidin-1(6H)-yl)-N-(4-(3-oxomorpholino)phenyl)-3-phenylpropanamide]	155
O=C(Nc1cccc2ncccc12)[C@H](Cc1ccccc1)n1cnc(-c2cc(Cl)ccc2-n2cc(Cl)nn2)cc1=O [Example 29, (S)-2-(4-(5-chloro-2-(4-chloro-1H-1,2,3-triazol-1-yl)phenyl)-6-oxopyrimidin-1(6H)-yl)-3-phenyl-N-(quinolin-5-yl)propanamide]	162
O=C(Nc1n[nH]c2ccccc12)[C@H](Cc1ccccc1)n1cnc(-c2cc(Cl)ccc2-n2cc(Cl)nn2)cc1=O [Example 125, (S)-2-(4-(5-chloro-2-(4-chloro-1H-1,2,3-triazol-1-yl)phenyl)-6-oxopyrimidin-1(6H)-yl)-N-(1H-indazol-3-yl)-3-phenylpropanamide]	66.9
O=C(Nc1ccnc2ccc(Cl)cc12)[C@H](Cc1ccccc1)n1cnc(-c2cc(Cl)ccc2-n2cc(Cl)nn2)cc1=O [Example 124, (S)-2-(4-(5-chloro-2-(4-chloro-1H-1,2,3-triazol-1-yl)phenyl)-6-oxopyrimidin-1(6H)-yl)-N-(6-chloroquinolin-4-yl)-3-phenylpropanamide]	7150
O=C(Nc1ccc2[nH]ccc2n1)[C@H](Cc1ccccc1)n1cnc(-c2cc(Cl)ccc2-n2cc(Cl)nn2)cc1=O [Example 47, (S)-2-(4-(5-chloro-2-(4-chloro-1H-1,2,3-triazol-1-yl)phenyl)-6-oxopyrimidin-1(6H)-yl)-3-phenyl-N-(1H-pyrrolo[3,2-b]pyridin-5-yl)propanamide]	154
O=C(NCCO)[C@H](Cc1ccccc1)n1cnc(-c2cc(Cl)ccc2-n2cc(Cl)nn2)cc1=O [Example 86, (S)-2-(4-(5-chloro-2-(4-chloro-1H-1,2,3-triazol-1-yl)phenyl)-6-oxopyrimidin-1(6H)-yl)-N-(2-hydroxyethyl)-3-phenylpropanamide]	5500
O=C(NCc1ccc(Cl)cc1)[C@H](Cc1ccccc1)n1cnc(-c2cc(Cl)ccc2-n2cc(Cl)nn2)cc1=O [Example 76, (S)-2-(4-(5-chloro-2-(4-chloro-1H-1,2,3-triazol-1-yl)phenyl)-6-oxopyrimidin-1(6H)-yl)-N-(4-chlorobenzyl)-3-phenylpropanamide]	1220
